Results as given in patent US20250230138A1, “COMPOUNDS HAVING A T-STRUCTURE FORMED BY AT LEAST FOUR CYCLES FOR USE IN THE TREATMENT OF CANCER AND OTHER INDICATIONS” (TheRas, Inc., priority 2022, published 2025).
Where two headings read alike, the source gives them in different places.

Key:
pAKT in BT474 cells = assay: Cell-based pAKT HTRF assay in BT474 cells; conditions: BT474 cells, 4 hr incubation, read-out: pAKT inhibition IC50 in BT474 cells
How it was run: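 pAKT was measured by HTRF after a 4 hr compound exposure in BT474 cells (DMEM, 10% FBS, 0.25% DMSO), using 9 concentrations from 3 μM in 3-fold steps. Cell lysates were incubated with the Eu cryptate/d2 antibody pair at room temperature for 4 to 24 h. The plate was then read at 320 nm excitation and 615 nm emission.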

[1] = biological target: Cys242 in human PIK3CA (157-299) (Homo sapiens (Human), UniProt P42336); assay: Covalent modification assay using MALDI-TOF MS; type: biochemical; conditions: 4 h reaction time point
How it was run: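 PIK3CA (157-299), 3.33 or 1 μM in 20 mM HEPES, 150 mM NaCl, 2 mM MgCl2, pH 7.3, was incubated with compound at room temperature in the dark for 15 min, 30 min, 2 h or 4 h. Linear MALDI-TOF read-out; % modification = adduct peak height over summed heights of all protein species.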

[2] = 3.33 μM protein target, 1:7.5 protein to compound ratio (compounds 1-852)
[3] = 1 μM protein target, 1:5 protein to compound ratio (compounds 853-1279)
[4] = Homo sapiens, BT-474, Compounds 10-999

Cys242 in human PIK3CA (157-299), sequence (P42336 157-299): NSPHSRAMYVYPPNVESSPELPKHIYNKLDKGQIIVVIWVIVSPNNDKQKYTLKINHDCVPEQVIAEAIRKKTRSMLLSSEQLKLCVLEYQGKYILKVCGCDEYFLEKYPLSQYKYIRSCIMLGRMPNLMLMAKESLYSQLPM

SMILES	IC50 (pAKT in BT474 cells; Compounds 10-999)	IC50 (pAKT in BT474 cells; Compounds 1000-1279)	IC50 (pAKT in BT474 cells; [4])	% of modification [1, 2]	% of modification [1, 3]
C=CC(=O)N1Cc2cc(-c3nc(-c4ccc5c(c4)CCN(C)C5)c4ccsc4c3-c3c(F)cc(F)cc3OC(C)C)nn2C[C@H]1C [Compound 478, 1-((R)-2-((R)-7-(2,4-difluoro-6-isopropoxyphenyl)-4-(2-methyl-1,2,3,4-tetrahydroisoquinolin-6-yl)thieno[3,2-c]pyridin-6-yl)-6-methyl-6,7-dihydropyrazolo[1,5-a]pyrazin-5(4H)-yl)prop-2-en-1-one]	100 to 1000 nM			D (percent of modification <25%)	
C=C(F)C(=O)N1Cc2cc(-c3nc(-c4ccc5c(cnn5C)c4)c4ccsc4c3-c3c(F)cc(F)cc3OCCOC)nn2CC1C (stereo not shown) [Compound 873]	100 to 1000 nM				D (percent of modification <25%)
C=CC(=O)N1CCn2nc(-c3nc(-c4ccc(C(=O)N(C)C)cc4)c4ccsc4c3-c3c(F)cc(F)cc3OCCOC)cc2C1C (stereo not shown) [Compound 1100]		< 100 nM			A (percent of modification of PIK3CA protein ≥75%)
C=CC(=O)N1Cc2cc(-c3nc(-c4cnn(C)c4)c4ccsc4c3-c3ccc(F)cc3OC(C)C)nn2[C@H](C)C1 [Compound 357, 1-((7R)-2-(7-(4-fluoro-2-isopropoxyphenyl)-4-(1-methyl-1H-pyrazol-4-yl)thieno[3,2-c]pyridin-6-yl)-7-methyl-6,7-dihydropyrazolo[1,5-a]pyrazin-5(4H)-yl)prop-2-en-1-one]			< 100 nM	A (percent of modification of PIK3CA protein ≥75%)	
C=CC(=O)N1CCn2nc(-c3nc(-c4ccc5c(c4)CN(CC(F)(F)F)CC5)c4ccsc4c3-c3c(F)cc(F)cc3OCCOC)cc2C1C (stereo not shown) [Compound 1252]		< 100 nM			A (percent of modification of PIK3CA protein ≥75%)
C=CC(=O)N1CCn2nc(-c3nc(N4CCS(=O)(=O)CC4)c4ccsc4c3-c3ccc(F)cc3OC(C)C)cc2C1 [Compound 286]	> 3000 nM			A (percent of modification of PIK3CA protein ≥75%)	
C=CC(=O)N1CCn2nc(-c3nc(-c4ccc5c(c4)CCN(C)C5(C)C)c4ccsc4c3-c3c(F)cc(F)cc3OCCO)cc2C1C (stereo not shown) [Compound 1181]		< 100 nM			A (percent of modification of PIK3CA protein ≥75%)
C=CC(=O)N1CCn2cc(-c3nc(-c4ccc5c(c4)CCNC5)c4ccsc4c3-c3ccc(F)cc3OCCOC)nc2C1 [Compound 101, 1-[2-[7-[4-fluoro-2-(2-methoxyethoxy)phenyl]-4-(1,2,3,4-tetrahydroisoquinolin-6-yl)thieno[3,2-c]pyridin-6-yl]-6,8-dihydro-5H-imidazo[1,2-a]pyrazin-7-yl]prop-2-en-1-one]			< 100 nM	A (percent of modification of PIK3CA protein ≥75%)	
C=CC(=O)N1CCn2nc(-c3nc(-c4ccc5c(cnn5C)c4F)c4ccsc4c3-c3c(F)cc(F)cc3OCCO)cc2[C@H]1C (single isomer, unassigned) [Compound 1145]		< 100 nM			A (percent of modification of PIK3CA protein ≥75%)
C=CC(=O)N1CCn2nc(-c3nc(-c4ccc(C(=O)NC)cc4)c4ccsc4c3-c3c(F)cc(F)cc3OCCOC)cc2C1C (stereo not shown) [Compound 1103]		< 100 nM			A (percent of modification of PIK3CA protein ≥75%)
C=CC(=O)N1CCn2nc(-c3nc(-c4cnn(C)c4)c4ccsc4c3-c3c(F)cc(F)cc3OCCO)cc2[C@H]1C [Compound 641]	100 to 1000 nM			C (25%≤percent of modification <50%)	
C=CC(=O)N1Cc2cc(-c3nc(-c4ccc5c(c4)CNC5=O)c4ccsc4c3-c3c(F)cc(F)cc3OC)nn2C(C)C1 (stereo not shown) [Compound 910]	100 to 1000 nM				B (50%<percent of modification <75%)
C=CC(=O)N1CCc2nc(-c3nc(-c4ccc5c(c4)CCN(C)C5)c4ccsc4c3-c3c(F)cc(F)cc3OCC)sc2C1 [Compound 438]	100 to 1000 nM			A (percent of modification of PIK3CA protein ≥75%)	
C=CC(=O)N1Cc2cc(-c3nc(-c4ccc5c(c4)CCN(C)C5)c4ccsc4c3-c3c(F)cc(F)cc3OC)nn2C(C)C1 (stereo not shown) [Compound 484]	< 100 nM			A (percent of modification of PIK3CA protein ≥75%)	
C=CC(=O)N1CC(n2cc(-c3nc(N4CCn5cnnc5C4)c4ccsc4c3-c3ccc(F)cc3OCCOC)cn2)C1 [Compound 228]	100 to 1000 nM			A (percent of modification of PIK3CA protein ≥75%)	
C=CC(=O)N1CCn2nc(-c3nc(-c4ccc(N5CCN(C)CC5)nc4)c4ccsc4c3-c3c(F)cc(F)cc3OCCOC)cc2C1C (stereo not shown) [Compound 1048]		< 100 nM			A (percent of modification of PIK3CA protein ≥75%)
C=CC(=O)N1CCn2nc(-c3nc(-c4ccc5c(=O)n(C)ncc5c4)c4ccsc4c3-c3c(F)cc(F)cc3OCCO)cc2[C@H]1C [Compound 889]	< 100 nM				A (percent of modification of PIK3CA protein ≥75%)
C=CC(=O)N1Cc2cc(-c3nc(-c4ccnc(N(C)C)c4)c4ccsc4c3-c3c(F)cc(F)cc3OCCOC)nn2C[C@H]1C [Compound 839]	< 100 nM			A (percent of modification of PIK3CA protein ≥75%)	
C=CC(=O)N1CCn2nc(-c3nc(N4CC5(CCNC(=O)C5)C4)c4ccsc4c3-c3c(F)cc(F)cc3OCCOC)cc2C1C (stereo not shown) [Compound 1088]		100 to 1000 nM			B (50%<percent of modification <75%)
C=CC(=O)N1CCc2ncc(-c3nc(-c4ccc5nncn5c4)c4ccsc4c3-c3c(F)cc(F)cc3OCCOC)cc2C1 [Compound 941]	< 100 nM				A (percent of modification of PIK3CA protein ≥75%)
C=CC(=O)N1CC(n2cc(-c3nc(-c4cnn(CF)c4)c4ccsc4c3-c3ccc(F)cc3OCCOC)cn2)C1 [Compound 236]	100 to 1000 nM			A (percent of modification of PIK3CA protein ≥75%)	
C=CC(=O)N1Cc2cc(-c3nc(-c4cnn(C)c(=O)c4)c4ccsc4c3-c3c(F)cc(F)cc3OCCOC)nn2C[C@H]1C [Compound 793]	< 100 nM			A (percent of modification of PIK3CA protein ≥75%)	
C=CC(=O)N1Cc2cc(-c3nc(-c4ccc5nncn5c4)c4ccsc4c3-c3c(F)cc(F)cc3OCCOC)nn2[C@@H](C)C1 [Compound 693]	< 100 nM			A (percent of modification of PIK3CA protein ≥75%)	

The next lines start with results.

IC50 (pAKT in BT474 cells; Compounds 10-999)	IC50 (pAKT in BT474 cells; Compounds 1000-1279)	IC50 (pAKT in BT474 cells; [4])	SMILES	% of modification [1, 2]	% of modification [1, 3]
< 100 nM			C=CC(=O)N1Cc2cc(-c3nc(-c4cnnc(C)c4)c4ccsc4c3-c3c(F)cc(F)cc3OCCO)nn2C(C)C1 (stereo not shown) [Compound 788]	A (percent of modification of PIK3CA protein ≥75%)	
< 100 nM			C=CC(=O)N1CCn2nc(-c3nc(-c4cnn(C)c(=O)c4)c4ccsc4c3-c3c(F)cc(F)cc3OCCOC)cc2C1C (stereo not shown) [Compound 984]		A (percent of modification of PIK3CA protein ≥75%)
< 100 nM			C=CC(=O)N1CCc2ncc(-c3nc(-c4cnn(CC(C)(C)O)c4)c4ccsc4c3-c3c(F)cc(F)cc3OC(C)C)cc2C1 [Compound 345]	A (percent of modification of PIK3CA protein ≥75%)	
< 100 nM			C=C(F)C(=O)N1CCn2nc(-c3nc(-c4ccc5c(c4)CCN(C)C5)c4ccsc4c3-c3c(F)cc(F)cc3OC(C)C)cc2C1 (single isomer, unassigned) [Compound 486]	A (percent of modification of PIK3CA protein ≥75%)	
< 100 nM			C=CC(=O)N1Cc2cc(-c3nc(-c4ccc5c(cnn5C)c4)c4ccsc4c3-c3c(F)cc(F)cc3OC)nn2C(C)C1 (stereo not shown) [Compound 854]		A (percent of modification of PIK3CA protein ≥75%)
< 100 nM			C=CC(=O)N1CCn2nc(-c3nc(-c4ccc5c(c4)CCN(C)C5)c4ccsc4c3-c3c(F)cc(F)cc3OC3CC3)cc2[C@@H]1C [Compound 548]	A (percent of modification of PIK3CA protein ≥75%)	
< 100 nM			C=CC(=O)N1Cc2cc(-c3nc(-c4ccc5nncn5c4)c4ccsc4c3-c3c(F)cc(F)cc3OCC(C)O)nn2C(C)C1 (stereo not shown) [Compound 643]	A (percent of modification of PIK3CA protein ≥75%)	
< 100 nM			C=CC(=O)N1CCc2ncc(-c3nc(-c4cnn(C)c4)c4ccsc4c3-c3c(F)cc(F)cc3OC(C)C)cc2C1 [Compound 324]	A (percent of modification of PIK3CA protein ≥75%)	
< 100 nM			C=CC(=O)N1CC[C@@H](n2cc(-c3nc(-c4cnnc(C)c4)c4ccsc4c3-c3c(F)cc(F)cc3OC(C)C)cn2)C1 [Compound 391]	A (percent of modification of PIK3CA protein ≥75%)	
< 100 nM			C=CC(=O)N1Cc2cc(-c3nc(-c4ccc5c(=O)n(C)ncc5c4)c4ccsc4c3-c3c(F)cc(F)cc3OCCOC)nn2C[C@H]1C [Compound 849]	A (percent of modification of PIK3CA protein ≥75%)	
< 100 nM			C=CC(=O)N1Cc2cc(-c3nc(-c4ccc5c(c4)CN(C)C5=O)c4ccsc4c3-c3c(F)cc(F)cc3OCCO)nn2CC1C (stereo not shown) [Compound 494]	A (percent of modification of PIK3CA protein ≥75%)	
< 100 nM			C=CC(=O)N1Cc2cc(-c3nc(-c4cc5n(n4)CCNC5=O)c4ccsc4c3-c3c(F)cc(F)cc3OCCOC)nn2C[C@H]1C [Compound 685]	A (percent of modification of PIK3CA protein ≥75%)	
